What was measured:
Format in all cases: cell-based, human
[1] = tested on: MCF7 cell lines (clones) in which the ERE-GFP reporter gene having a sable GFP as the reporter was stably introduced; experiment: GFP protein induction with/without estrogen (E2), stable-GFP reporter clones; details: E2 10 nM, two days
ERE-GFP-E10 cell line [2] = experiment: Estrogen signal response assessment (GFP expression, fluorescence microscope / flow cytometer); details: E2 10 nM, two days; compared with E2-untreated (low GFP expression level)
[3] = tested on: cell line in which only the pd2EGFP-1 vector having no ERE was stably introduced (pdE2-GFP-4); experiment: Estrogen signal response assessment (GFP expression), control cell line without ERE; details: E2 10 nM, two days; regardless of E2-treated/untreated
ERE-GFP-E10 cell line [4] = experiment: GFP expressing cell counting after addition of E2
ERE-GFP-E10 cell line [5] = experiment: MTT assay for living cell counts after addition of E2; details: E2 0 to 300 pM; four days; absorbance at 560 nm
[6] = tested on: breast cancer tissue-derived adipose stromal cell and ERE-GFP-E10 cell; experiment: Co-culture of breast cancer tissue-derived adipose stromal cell and ERE-GFP-E10, detection of estrogen signal; design: dose or concentration left out as unconfirmed; details: testosterone, four days co-culture; compared with no addition of androgen; three breast cancer cases
[7] = E2 3 pM or 1 nM, Day 1 to Day 4, regardless of the amount of E2 added

Q: What does the source list for `C[C@]12CC[C@@H]3c4ccc(O)cc4CC[C@H]3[C@@H]1CC[C@@H]2O` [E2, 17 β estradiol]?
A: GFP expression positive cell rate (%) E2-added group ([1]; clone #16, E2-free group 85): 88%; GFP expression positive cell rate (%) E2-added group ([1]; clone #19, E2-free group 32): 73%; GFP expression positive cell rate (%) E2-added group ([1]; clone #21, E2-free group 5): 8%; GFP expression positive cell rate (%) E2-added group ([1]; clone #28, E2-free group 37): 41%; GFP expression positive cell rate (%) E2-added group ([1]; clone #29, E2-free group 77): 83%; GFP expression positive cell rate (%) E2-added group ([1]; clone #37, E2-free group 83): 84%; GFP expression level when E2-treated (ERE-GFP-E10 cell line [2]): GFP well induced, having a high expression level; GFP expression [3]: no GFP expression; E2 concentration at which GFP expression induction was maximized (ERE-GFP-E10 cell line [4]; E2 0, 1, 3, 10, 30, 100, 300 pM, four days): 30 pM; day from which GFP expression was observed after the addition of E2 (ERE-GFP-E10 cell line [4]; [7]): 1 days; day on which GFP expression positive cell count was maximized (ERE-GFP-E10 cell line [4]; [7]): 2 days; minimal effective concentration (ERE-GFP-E10 cell line [4]; Homo sapiens, 96 h, E2 0, 1, 3, 10, 30, 100, 300 pM, four days, read-out: E2 concentration at which a significant level of GFP expression induction was detected): 3e-06 µM; living cell count (ERE-GFP-E10 cell line [5]): increased dependently on the added E2 concentration

Q: For `C[C@]12CC[C@H]3[C@@H](CCC4=CC(=O)CC[C@@]43C)[C@@H]1CC[C@@H]2O` [testosterone], which “GFP positive cell rate in the ERE-GFP-E10 cell” value [6] is on record?
A: significantly increased
